Measurements reported in ChEMBL document CHEMBL1121567, “Synthesis of some 5-phenylhexahydroazepino[4,5-b]indoles as potential neuroleptic agents” (1980).

Assays:
[1] = system: Rattus norvegicus; assay: Effective dose to block muricidal behavior in rat when administered ip; type: functional
[2] = system: Mus musculus; assay: Effective dose to reverse tetrabenazine ptosis in mouse when administered po; type: functional

Compound	ED50 [1] [mg/kg]	ED50 [2] [mg/kg]
COc1ccc2[nH]c3c(c2c1)CCN(C)CC3c1ccccc1 (centres undefined)	> 10	1.9
CN1CCc2c(n(C)c3ccccc23)C(c2ccccc2)C1 (centres undefined)	> 20	> 30
CN(C)CCCN1c2ccccc2CCc2ccccc21 [IMIPRAMINE]	20.2	2
COc1ccc2[nH]c3c(c2c1)CCNCC3c1ccccc1 (centres undefined)	12.2	> 30
Cn1c2c(c3ccccc31)CCNCC2c1ccccc1 (centres undefined)	> 10	> 30
c1ccc(C2CNCCc3c2[nH]c2ccccc32)cc1 (centres undefined)	2.1	> 30
CN1CCc2c([nH]c3ccccc23)C(c2ccccc2)C1 (centres undefined)	> 10	1
